Data on 6 compounds can be found in patent US5112739A, “Enzyme controlled release system” (Polaroid Corporation, priority 1988, dated 1992).

Molecules are shown by their SMILES.

Holding throughout (format): biochemical
Assay [1] addresses β-galactosidase from e. coli (Escherichia coli, UniProt P00722). Kind of assay: relative release rate of the leaving group on cleavage by β-galactosidase, spectrophotometric. The following applies: for APPROXIMATE RELATIVE RATE (release of leaving group, compared with ONPG): 5 × 10^-5 M compound, pH7 tris buffer, 0.01 M NaCl, 0.01 M MgCl2, 25° C., 1.5 IU β-galactosidase, ONPG = 1.0; for release rate, comparison in words: same test as the relative rate table, β-galactosidase from e. coli. The protocol:
The approximate relative release rates of the leaving groups of compounds according to the invention compared with that of o-nitrophenolgalactoside (ONPG) were measured according to the following procedure: a 5 × 10^-5 M solution of the compound was formed in pH7 tris(hydroxymethyl)aminomethane buffer which was 0.01 M in sodium chloride and 0.01 M in magnesium chloride at 25° C. The solution was placed in a 3 ml cuvette and 1.5 IU of β-galactosidase from e. coli introduced. The reaction mixture was monitored in a spectrophotometer at the appropriate wavelength.

Assay [2] concerns anti α-TSH-β-galactosidase conjugate. The assay is described as follows: release of dye from compound B by anti α-TSH-β-galactosidase conjugate, optical density and fluorescence. The conditions noted are these: 100 μl of 0.3 mmolar mixture, pH 7.0 buffer, + 10 μl conjugate, 15 minutes at 37° C., enzyme 1.3 × 10^-12 molar. The protocol: A 0.3 :mmolar mixture of compound B in a pH 7.0 buffer (0.1 molar NaH2 PO 0.15 molar NaCl, 0.1% Zwittergent 3-14) was stirred at room temperature for 30 minutes and then filtered through a 0.22 μ filter element. The concentration of the compound was calculated by diluting the solution (1:10) to provide an optical density of between 0.39 and 0.41 at 470 nm (ε=20,000).
The solution (100 μl) was added to a microtiter plate well and the optical density was measured at 570 nm with an EIA Auto Reader, Model EL 310 from Bio Tek Instruments. The fluorescence of the same 100 μl volume of the solution was measured with a Titertek Fluoroska® from Flow Laboratories by exciting at 550 nm and reading at 580 nm.
To each of the 100 μl volumes of the solution there were added 10 μl of an anti α-TSH-β-galactosidase conjugate ([…] in β-galactosidase) and the mixtures were incubated for 15 minutes at 37° C. followed by measuring the optical density and fluorescence as described above.

Assay [3] relates to β-galactosidase (e. coli). Kind of assay: fluorescence rate of compound B as a function of β-galactosidase concentration (standard curve). The following applies: 45 μl 0.614 mmolar compound + 5 μl enzyme, pH 7.6, ex 550 nm/em 580 nm, 0 and 2 minutes, average of two.

Chain of β-galactosidase from e. coli (P00722 whole entry): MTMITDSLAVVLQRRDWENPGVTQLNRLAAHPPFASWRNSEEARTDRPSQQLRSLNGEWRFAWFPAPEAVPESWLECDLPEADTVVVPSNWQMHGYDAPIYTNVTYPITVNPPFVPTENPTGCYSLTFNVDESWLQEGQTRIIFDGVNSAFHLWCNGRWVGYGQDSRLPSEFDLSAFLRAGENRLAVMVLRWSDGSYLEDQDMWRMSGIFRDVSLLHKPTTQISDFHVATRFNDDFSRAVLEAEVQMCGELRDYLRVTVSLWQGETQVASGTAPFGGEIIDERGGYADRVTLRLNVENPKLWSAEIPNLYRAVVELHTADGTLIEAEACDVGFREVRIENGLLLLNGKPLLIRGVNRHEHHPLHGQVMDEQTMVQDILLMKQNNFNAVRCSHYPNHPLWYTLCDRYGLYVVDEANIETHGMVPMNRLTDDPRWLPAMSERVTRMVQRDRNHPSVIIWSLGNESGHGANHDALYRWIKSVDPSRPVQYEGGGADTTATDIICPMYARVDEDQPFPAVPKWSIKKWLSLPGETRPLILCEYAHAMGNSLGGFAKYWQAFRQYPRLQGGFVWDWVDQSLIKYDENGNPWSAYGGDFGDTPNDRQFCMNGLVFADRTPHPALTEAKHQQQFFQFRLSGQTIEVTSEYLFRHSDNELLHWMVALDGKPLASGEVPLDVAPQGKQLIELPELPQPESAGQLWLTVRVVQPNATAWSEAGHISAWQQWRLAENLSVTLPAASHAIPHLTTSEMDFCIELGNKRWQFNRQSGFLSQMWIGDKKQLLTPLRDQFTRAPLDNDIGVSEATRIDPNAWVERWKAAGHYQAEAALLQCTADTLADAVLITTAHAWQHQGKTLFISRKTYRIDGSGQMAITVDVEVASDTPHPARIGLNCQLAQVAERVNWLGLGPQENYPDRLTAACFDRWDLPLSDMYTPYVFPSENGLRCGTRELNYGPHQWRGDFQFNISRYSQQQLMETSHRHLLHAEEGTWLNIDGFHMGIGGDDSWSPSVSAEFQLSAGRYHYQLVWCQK

Take `O=c1ccc2nc3ccc(OCc4ccc(O[C@@H]5O[C@H](CO)[C@H](O)[C@H](O)[C@H]5O)c([N+](=O)[O-])c4)cc3oc-2c1` [A]: in assay [1], the “APPROXIMATE RELATIVE RATE (release of leaving group, compared with ONPG)” value (“APPROXIMATE RELATIVE RATE” below) worked out at 0.25 and the “release rate, comparison in words” value is “significantly different release rates”.

Take `Cc1cc(=O)c(C(=O)N2CCOCC2)c2oc3c(C(=O)N4CCOCC4)c(OCc4ccc(O[C@@H]5O[C@H](CO)[C@H](O)[C@H](O)[C@H]5O)c([N+](=O)[O-])c4)cc(C)c3nc1-2` [B]: in assay [1], the “APPROXIMATE RELATIVE RATE” value was 0.3. Besides, the “change in optical density” value in assay [2] (570 nm) worked out at 0.0594. In addition, in assay [2] (excitation 550 nm, reading 580 nm), the change in fluorescence was 7266 mV. Also, the “change in voltage/minute (fluorescence)” value came to 2.161 V/min in assay [3] (Enzyme Conc. 1 × 10^-11); 0.247 V/min in assay [3] (Enzyme Conc. 1 × 10^-12); 0.035 V/min in assay [3] (Enzyme Conc. 1 × 10^-13); 0.734 V/min in assay [3] (Enzyme Conc. 3 × 10^-12); 0.078 V/min in assay [3] (Enzyme Conc. 3 × 10^-13).

Regarding `O=c1ccc2nc3ccc(OCc4cc([N+](=O)[O-])ccc4O[C@@H]4O[C@H](CO)[C@H](O)[C@H](O)[C@H]4O)cc3oc-2c1` [C], in assay [1], the “APPROXIMATE RELATIVE RATE” value is given as 0.005-0.05 and the “release rate, comparison in words” value is recorded as “significantly different release rates”.

In the case of `O=C(c1cc(O[C@@H]2O[C@H](CO)[C@H](O)[C@H](O)[C@H]2O)c([N+](=O)[O-])cc1COc1ccc2nc3ccc(=O)cc-3oc2c1)N1CCOCC1` [D], in assay [1], the “APPROXIMATE RELATIVE RATE” value is given as 0.02 and the “release rate, comparison in words” value is listed as “much slower release rate”.

For `O=C(c1cc2ccc(OCc3ccc(O[C@@H]4O[C@H](CO)[C@H](O)[C@H](O)[C@H]4O)c([N+](=O)[O-])c3)cc2oc1=O)N1CCOCC1` [E], the “APPROXIMATE RELATIVE RATE” value in assay [1] is reported as 0.1-0.5.

As to `O=[N+]([O-])c1ccccc1O[C@@H]1O[C@H](CO)[C@H](O)[C@H](O)[C@H]1O` [ONPG, o-nitrophenolgalactoside, reference compound], the “APPROXIMATE RELATIVE RATE” value in assay [1] was 1.0.
